Our source for the Activity values is ChEMBL document CHEMBL4334438, “Discovery of novel glycogen synthase kinase-3α inhibitors: Structure-based virtual screening, preliminary SAR and biological evaluation for treatment of acute myeloid leukemia” (Eur J Med Chem, 2019).

The target of experiment [1] is Phosphatidylinositol 4-phosphate 5-kinase type-1 gamma (Homo sapiens) (UniProt O60331). Put plainly: Inhibition of recombinant full-length human PIP5K1gamma at 1 uM assessed as residual activity at 1 uM using phosphatidylinositol 4-phosphate as substrate measured after 40 mins by HTRF assay. Background: In TR-FRET formats the signal depends on donor and acceptor labels being close together.
Phosphatidylinositol 4-phosphate 5-kinase type-1 gamma (Homo sapiens), sequence (O60331 whole entry): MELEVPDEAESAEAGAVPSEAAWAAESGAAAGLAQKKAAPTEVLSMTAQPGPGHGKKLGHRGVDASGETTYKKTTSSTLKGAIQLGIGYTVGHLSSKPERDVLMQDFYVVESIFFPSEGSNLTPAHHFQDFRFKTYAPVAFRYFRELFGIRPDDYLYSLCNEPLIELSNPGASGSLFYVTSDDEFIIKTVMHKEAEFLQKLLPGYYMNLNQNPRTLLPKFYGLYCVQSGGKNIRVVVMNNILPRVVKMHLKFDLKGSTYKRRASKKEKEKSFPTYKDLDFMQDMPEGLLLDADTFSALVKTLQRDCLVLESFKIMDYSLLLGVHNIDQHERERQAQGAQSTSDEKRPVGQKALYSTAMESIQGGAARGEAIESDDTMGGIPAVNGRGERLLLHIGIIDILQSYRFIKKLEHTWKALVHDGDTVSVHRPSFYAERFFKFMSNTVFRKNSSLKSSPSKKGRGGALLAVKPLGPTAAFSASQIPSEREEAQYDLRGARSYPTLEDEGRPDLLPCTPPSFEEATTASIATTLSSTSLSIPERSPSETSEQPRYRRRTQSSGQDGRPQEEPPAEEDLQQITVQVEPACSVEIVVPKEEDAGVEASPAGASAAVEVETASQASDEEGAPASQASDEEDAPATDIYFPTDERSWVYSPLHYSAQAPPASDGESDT

Experiment [2] addresses Fibroblast growth factor receptor 3 (Homo sapiens) (UniProt P22607). Put plainly: Inhibition of recombinant human FGFR3 (447 to 761 residues) assessed as residual activity at 1 uM using poly(Glu, Tyr) 4:1 as substrate at 40 mins in presence of [gamma-33ATP] by scintillation counting based radiometry assay relative to control.
In experiment [3] the test system is Serine/threonine-protein kinase TAO3 (Homo sapiens), Q9H2K8 [UNDEFINED MUTATION]. Put plainly: Inhibition of human TAO3 (1 to 411 residues) assessed as residual activity at 1 uM using myelin basic protein as substrate measured after 40 mins in presence of [gamma33P]ATP by scintillation counting method relative to control.
Experiment [4] addresses Insulin-like growth factor 1 receptor (Homo sapiens) (UniProt P08069). Put plainly: Inhibition of human activated IGF1R (959 to end residues) assessed as residual activity at 1 uM using KKKSPGEYVNIEFG as substrate after 40 mins by [gamma-33ATP] radiometric assay relative to control.
The subject of experiment [5] is PI3-kinase p110-alpha/p85-alpha (Homo sapiens), P27986+P42336 [E545K]. Put plainly: Inhibition of recombinant full-length human PI3K p110alpha E545K mutant/p85alpha assessed as residual activity at 1 uM assessed as residual activity at 1 uM using phosphatidylinositol-4, 5-bisphosphate as substrate incubated for 40 mins in presence of [gamma33P]ATP by scintillation counting based radiometry assay relative to control. In kind it is protein-complex assay.

Experiment [6] addresses G protein-coupled receptor kinase 5 (Homo sapiens) (UniProt P34947). Put plainly: Inhibition of recombinant full length human GRK5 assessed as residual activity at 1 uM using casein as substrate at 40 mins in presence of [gamma-33ATP] by scintillation counting based radiometry assay relative to control.
The target of experiment [7] is Rhodopsin kinase GRK1 (Homo sapiens) (UniProt Q15835). Put plainly: Inhibition of recombinant full length human GRK1 assessed as residual activity at 1 uM using KKKKERLLDDRHDSGLDSMKDEE as substrate at 40 mins in presence of [gamma-33ATP] by scintillation counting based radiometry assay relative to control.
Rhodopsin kinase GRK1 (Homo sapiens), sequence (Q15835 whole entry): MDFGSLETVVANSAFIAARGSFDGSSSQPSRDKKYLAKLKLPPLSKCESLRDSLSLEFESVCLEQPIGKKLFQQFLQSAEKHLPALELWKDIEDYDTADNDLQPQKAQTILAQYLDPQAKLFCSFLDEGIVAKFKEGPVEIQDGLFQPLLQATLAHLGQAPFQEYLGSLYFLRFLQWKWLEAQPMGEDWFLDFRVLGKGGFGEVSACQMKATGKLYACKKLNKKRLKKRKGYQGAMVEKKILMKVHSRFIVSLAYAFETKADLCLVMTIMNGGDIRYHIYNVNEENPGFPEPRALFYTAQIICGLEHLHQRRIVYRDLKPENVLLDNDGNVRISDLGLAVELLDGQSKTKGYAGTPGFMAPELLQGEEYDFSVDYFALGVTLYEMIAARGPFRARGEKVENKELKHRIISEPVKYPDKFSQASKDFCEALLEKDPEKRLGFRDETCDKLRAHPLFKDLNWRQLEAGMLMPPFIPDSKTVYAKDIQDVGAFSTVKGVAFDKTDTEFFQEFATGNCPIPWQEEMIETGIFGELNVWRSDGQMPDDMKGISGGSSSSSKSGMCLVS
Experiment [8] addresses Testis-specific serine/threonine-protein kinase 4 (Homo sapiens) (UniProt Q6SA08). Put plainly: Inhibition of recombinant full-length human TSSK4 at 1 uM assessed as residual activity at 1 uM using KKLNRTLSFAEPG as substrate measured after 40 mins in presence of [gamma33P]ATP by scintillation counting method relative to control.
Experiment [9] deals with Epithelial discoidin domain-containing receptor 1 (Homo sapiens) (UniProt Q08345). Put plainly: Inhibition of recombinant human DDR1 (492 to end residues) assessed as residual activity at 1 uM using KKKSPGEYVNIEFG as substrate at 40 mins in presence of [gamma-33ATP] by scintillation counting based radiometry assay relative to control.
In experiment [10] the target is LIM domain kinase 1 (Homo sapiens) (UniProt P53667). Put plainly: Inhibition of recombinant human LIMK1 (285 to 638 residues) assessed as residual activity at 1 uM using cofilin as substrate after 40 mins in presence of [gamma-33ATP] by scintillation counting based radiometry assay relative to control.
Experiment [11] has as its target Activin receptor type-1 (Homo sapiens) (UniProt Q04771). Put plainly: Inhibition of human ALK2 (147 to end residues) assessed as residual activity at 1 uM using casein as substrate incubated for 40 mins in presence of [gamma-33ATP] by scintillation counting based radiometry assay relative to control.
In experiment [12] the target is Protein kinase C theta type (Homo sapiens) (UniProt Q04759). Put plainly: Inhibition of recombinant full length human PKCtheta assessed as residual activity at 1 uM using histone H1 as substrate measured after 40 mins in presence of [gamma33P]ATP by scintillation counting method relative to control.
Protein kinase C theta type (Homo sapiens), sequence (Q04759 whole entry, looked up): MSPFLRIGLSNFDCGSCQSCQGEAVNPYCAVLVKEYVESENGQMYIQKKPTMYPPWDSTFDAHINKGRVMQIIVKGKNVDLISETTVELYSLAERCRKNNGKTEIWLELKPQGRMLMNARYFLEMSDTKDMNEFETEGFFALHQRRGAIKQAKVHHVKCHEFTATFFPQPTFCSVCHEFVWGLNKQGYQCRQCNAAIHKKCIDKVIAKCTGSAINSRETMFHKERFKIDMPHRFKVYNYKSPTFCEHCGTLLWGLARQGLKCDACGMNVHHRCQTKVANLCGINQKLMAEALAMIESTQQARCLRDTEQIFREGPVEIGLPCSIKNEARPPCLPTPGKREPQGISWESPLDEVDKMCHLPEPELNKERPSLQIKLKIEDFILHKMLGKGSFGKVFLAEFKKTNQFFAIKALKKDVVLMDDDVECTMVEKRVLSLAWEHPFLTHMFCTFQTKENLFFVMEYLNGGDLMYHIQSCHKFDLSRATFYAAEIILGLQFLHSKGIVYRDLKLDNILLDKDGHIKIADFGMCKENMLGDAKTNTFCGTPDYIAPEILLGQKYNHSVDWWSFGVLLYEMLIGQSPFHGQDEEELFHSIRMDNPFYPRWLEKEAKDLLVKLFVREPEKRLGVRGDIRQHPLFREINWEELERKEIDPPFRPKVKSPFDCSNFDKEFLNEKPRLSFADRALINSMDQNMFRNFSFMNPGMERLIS
Experiment [13] concerns the target Cyclin-dependent kinase 5/CDK5 activator 1 (Homo sapiens) (UniProt Q00535+Q15078). Put plainly: Inhibition of recombinant full length human CDK5/p25 assessed as residual activity at 1 uM using histone H1 as substrate incubated for 40 mins in presence of [gamma-33ATP] by scintillation counting based radiometry assay relative to control. It is filed as protein-complex assay.

In experiment [14] the target is Muscle, skeletal receptor tyrosine-protein kinase (Homo sapiens) (UniProt O15146). Put plainly: Inhibition of recombinant human MUSK (530 to end residues) assessed as residual activity at 1 uM using myelin basic protein as substrate measured after 40 mins in presence of [gamma33P]ATP by scintillation counting method relative to control.
Muscle, skeletal receptor tyrosine-protein kinase (Homo sapiens), sequence (O15146 whole entry): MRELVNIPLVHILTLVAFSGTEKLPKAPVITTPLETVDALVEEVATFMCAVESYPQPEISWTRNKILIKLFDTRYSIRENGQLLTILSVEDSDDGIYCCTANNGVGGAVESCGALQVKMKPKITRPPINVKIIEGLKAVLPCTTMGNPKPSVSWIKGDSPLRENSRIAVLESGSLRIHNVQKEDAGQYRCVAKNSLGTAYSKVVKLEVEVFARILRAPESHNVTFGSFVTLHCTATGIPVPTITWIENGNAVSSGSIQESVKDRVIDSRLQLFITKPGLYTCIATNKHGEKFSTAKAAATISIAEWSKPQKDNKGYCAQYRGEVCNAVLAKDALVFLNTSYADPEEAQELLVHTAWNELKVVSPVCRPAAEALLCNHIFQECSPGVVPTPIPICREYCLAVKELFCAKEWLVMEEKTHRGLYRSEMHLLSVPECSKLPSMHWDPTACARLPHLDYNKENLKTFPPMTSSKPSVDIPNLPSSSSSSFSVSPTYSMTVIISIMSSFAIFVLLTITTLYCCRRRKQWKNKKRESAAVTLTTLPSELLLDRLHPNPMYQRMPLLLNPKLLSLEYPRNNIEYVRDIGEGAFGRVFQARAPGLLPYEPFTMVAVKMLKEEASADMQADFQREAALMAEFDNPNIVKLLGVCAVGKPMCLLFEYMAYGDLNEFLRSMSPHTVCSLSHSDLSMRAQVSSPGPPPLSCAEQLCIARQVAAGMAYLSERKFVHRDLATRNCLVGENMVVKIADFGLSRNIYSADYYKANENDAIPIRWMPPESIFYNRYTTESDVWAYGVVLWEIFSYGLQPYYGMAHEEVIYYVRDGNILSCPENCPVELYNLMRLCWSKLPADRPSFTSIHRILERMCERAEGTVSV
Experiment [15] deals with Hepatocyte growth factor receptor (Homo sapiens), P08581 [Y1230C]. Put plainly: Inhibition of recombinant human MET A1209G/V1290L/Y1248C mutant (974 to end residues) assessed as residual activity at 1 uM using KKKGQEEEYVFIE as substrate incubated for 40 mins in presence of [gamma-33ATP by scintillation counting based radiometry assay relative to control.
The target of experiment [16] is Tyrosine-protein kinase JAK3 (Homo sapiens) (UniProt P52333). Put plainly: Inhibition of human JAK3 (781 to end residues) assessed as residual activity at 1 uM using GGEEEEYFELVKKKK as substrate after 40 mins by [gamma-33ATP] radiometric assay relative to control.
Experiment [17] has as its system Tyrosine-protein kinase receptor UFO (Homo sapiens), P30530 [Q764R]. Put plainly: Inhibition of recombinant human Axl Q764R mutant (473 to end residues) assessed as residual activity at 1 uM using KKSRGDYMTMQIG as substrate incubated for 40 mins in presence of [gamma-33ATP] by scintillation counting based radiometry assay relative to control.
Experiment [18] deals with Cyclin-dependent kinase-like 1 (Homo sapiens) (UniProt Q00532). Put plainly: Inhibition of recombinant human CDKL1 (1 to 303 residues) assessed as residual activity at 1 uM using RRRFRPASPLRGP as substrate measured after 120 mins in presence of [gamma33P]ATP by scintillation counting method.
The target of experiment [19] is cAMP-dependent protein kinase catalytic subunit alpha (Homo sapiens) (UniProt P17612). Put plainly: Inhibition of recombinant human PKA assessed as residual activity at 1 uM using Kemptide as substrate measured after 40 mins in presence of [gamma33P]ATP by scintillation counting method relative to control.
A further experiment is filed under the species Homo sapiens. Put plainly: Inhibition of recombinant full length human Aurora A I31F mutant assessed as residual activity at 1 uM using LRRASLG as substrate incubated for 40 mins in presence of [gamma-33ATP] by scintillation counting based radiometry assay relative to control.
Experiment [20] has as its system Proto-oncogene tyrosine-protein kinase receptor Ret (Homo sapiens), P07949 [V804M]. Put plainly: Inhibition of recombinant human Ret V804M mutant (658 to end residues) assessed as residual activity at 1 uM using […] as substrate measured after 40 mins in presence of [gamma33P]ATP by scintillation counting method relative to control.

Structures are written as SMILES.

Insulin-like growth factor 1 receptor (Homo sapiens), sequence (P08069 31-736 limits assumed): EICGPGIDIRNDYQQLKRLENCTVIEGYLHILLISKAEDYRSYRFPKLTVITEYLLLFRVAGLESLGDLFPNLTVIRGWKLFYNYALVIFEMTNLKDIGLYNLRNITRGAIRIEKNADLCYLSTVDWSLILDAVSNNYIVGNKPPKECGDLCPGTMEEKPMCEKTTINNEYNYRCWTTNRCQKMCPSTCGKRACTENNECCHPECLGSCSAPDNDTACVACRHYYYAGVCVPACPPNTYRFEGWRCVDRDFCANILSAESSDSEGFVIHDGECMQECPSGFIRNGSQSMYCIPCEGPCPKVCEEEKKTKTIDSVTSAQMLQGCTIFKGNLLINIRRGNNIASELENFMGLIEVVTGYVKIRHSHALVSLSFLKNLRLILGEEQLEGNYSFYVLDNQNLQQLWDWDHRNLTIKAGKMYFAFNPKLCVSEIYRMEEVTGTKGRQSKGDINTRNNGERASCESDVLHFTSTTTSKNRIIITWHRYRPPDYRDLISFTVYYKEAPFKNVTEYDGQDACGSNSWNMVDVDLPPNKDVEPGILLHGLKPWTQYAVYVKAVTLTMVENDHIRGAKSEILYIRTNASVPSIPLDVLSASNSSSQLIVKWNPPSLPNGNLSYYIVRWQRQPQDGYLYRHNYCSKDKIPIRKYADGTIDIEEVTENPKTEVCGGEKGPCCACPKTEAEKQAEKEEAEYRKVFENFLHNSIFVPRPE
Insulin-like growth factor 1 receptor (Homo sapiens), sequence (P08069 741-1367 limits assumed): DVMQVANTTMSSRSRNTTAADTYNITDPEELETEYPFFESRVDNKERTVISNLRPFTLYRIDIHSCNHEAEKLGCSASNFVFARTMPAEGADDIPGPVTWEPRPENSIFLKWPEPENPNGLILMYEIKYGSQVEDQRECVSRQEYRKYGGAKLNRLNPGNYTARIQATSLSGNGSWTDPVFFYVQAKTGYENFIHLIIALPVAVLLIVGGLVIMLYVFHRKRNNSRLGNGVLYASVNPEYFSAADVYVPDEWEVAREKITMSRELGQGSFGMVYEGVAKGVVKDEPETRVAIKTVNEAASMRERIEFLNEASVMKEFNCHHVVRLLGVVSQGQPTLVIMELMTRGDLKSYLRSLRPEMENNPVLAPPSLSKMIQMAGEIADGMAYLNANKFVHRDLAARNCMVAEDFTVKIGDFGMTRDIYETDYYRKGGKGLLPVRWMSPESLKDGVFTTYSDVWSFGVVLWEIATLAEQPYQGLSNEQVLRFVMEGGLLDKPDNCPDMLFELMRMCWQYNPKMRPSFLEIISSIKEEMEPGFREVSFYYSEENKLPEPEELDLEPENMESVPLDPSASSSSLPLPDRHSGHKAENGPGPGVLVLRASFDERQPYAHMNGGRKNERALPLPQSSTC
Testis-specific serine/threonine-protein kinase 4 (Homo sapiens), sequence (Q6SA08 whole entry, the tested form may be a part): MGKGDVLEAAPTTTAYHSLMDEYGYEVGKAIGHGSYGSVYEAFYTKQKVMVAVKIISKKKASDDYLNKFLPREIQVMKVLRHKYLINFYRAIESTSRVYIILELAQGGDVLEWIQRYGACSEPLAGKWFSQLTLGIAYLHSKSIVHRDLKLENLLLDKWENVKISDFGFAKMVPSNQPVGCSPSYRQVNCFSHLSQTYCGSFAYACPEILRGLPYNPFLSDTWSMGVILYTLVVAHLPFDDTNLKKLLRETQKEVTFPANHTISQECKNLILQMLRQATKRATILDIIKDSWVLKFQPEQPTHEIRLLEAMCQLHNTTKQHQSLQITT
Activin receptor type-1 (Homo sapiens), sequence (Q04771 whole entry): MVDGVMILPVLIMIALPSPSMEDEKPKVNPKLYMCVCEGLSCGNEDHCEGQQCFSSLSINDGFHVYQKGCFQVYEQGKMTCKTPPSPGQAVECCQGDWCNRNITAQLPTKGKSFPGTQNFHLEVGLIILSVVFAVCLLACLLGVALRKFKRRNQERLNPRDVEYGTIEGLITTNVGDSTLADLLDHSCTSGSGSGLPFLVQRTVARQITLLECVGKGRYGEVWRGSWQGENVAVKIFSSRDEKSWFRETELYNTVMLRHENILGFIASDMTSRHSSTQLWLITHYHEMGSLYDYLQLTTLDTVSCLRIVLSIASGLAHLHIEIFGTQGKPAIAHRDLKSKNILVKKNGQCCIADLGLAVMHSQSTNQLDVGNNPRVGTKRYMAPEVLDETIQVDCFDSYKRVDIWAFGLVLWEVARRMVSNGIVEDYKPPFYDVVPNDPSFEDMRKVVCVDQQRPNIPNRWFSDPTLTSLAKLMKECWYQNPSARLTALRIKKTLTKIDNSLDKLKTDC

On to `N=C1NC(=O)/C(=C\c2ccc(-c3cccc([N+](=O)[O-])c3)o2)S1`, for which the Activity in [1] amounted to 101%; in experiment [2], 107%; in experiment [3], 81%; in [4], 99%; in experiment [5], 100%; in experiment [6], 100%. For the same compound, the Activity in experiment [7] was 97%; in experiment [8], 102%; in experiment [9] it was 99%; in experiment [10] it was 100%; in experiment [11] it was 101%; in experiment [12], 101%. Moreover, the Activity in experiment [13] amounted to 75%; in [14], 114%; in experiment [15], 98%; in [16] it was 102%; in [17] it was 98%; in experiment [18], 85%. Also, the Activity in experiment [19] was 107%; in the experiment filed under Homo sapiens, 101%; in experiment [20], 95%.

Consider `C=CCOC(=O)c1cc(-c2ccc(/C=C3/NC(=S)NC3=O)o2)ccc1Cl`, for which the Activity in [1] stood at 100%; in [2], 106%; in experiment [3], 87%; in [4] it was 96%; in experiment [5] it was 92%; in experiment [6] it was 79%. Further, the Activity stood at 104% in [7]; 121% in experiment [8]; 106% in experiment [9]; 96% in experiment [10]; 105% in [11]; 96% in experiment [12]. In addition, the Activity worked out at 58% in experiment [13]; 96% in experiment [14]; 114% in experiment [15]; 104% in experiment [16]; 101% in experiment [17]; 78% in experiment [18]. Further, the Activity in experiment [19] was found to be 82%; in the experiment filed under Homo sapiens, 114%; in experiment [20], 98%.
